In patent US7947470B2, “Polynucleotides encoding hOCTN1 polypeptide” (Chugai Seiyaku Kabushiki Kaisha, priority 1997, dated 2011):
Starred links: 1 amine or outer side, 2 acyl side, 3 side chain; linkers in the order of their positions; H or OH if unused. Positions of bridges follow the written chain, without caps; N, C: chain ends. Non-standard residues stand in square brackets, D forms with d. Residues, ends and D or L forms follow the SMILES beside them. Chains are numbered I, II in the order given. Actinocin(9to1) = Cc1c2oc3c(C)ccc(C(=O)[*:1])c3nc-2c(C(=O)[*:2])c(N)c1=O; NMeV = CN[C@H](C(=O)O)C(C)C; Sar = CNCC(=O)O

Assays:
Format in all cases: cell-based
human OCTN1 [1] = biological target: T1, human OCTN1 (Homo sapiens, UniProt Q9H015, I306T/L503F); assay: Transport experiment in HEK293 cells transfected with human OCTN1 (pcDNA3/OCTN1); settings: for uptake of labeled substrate into human OCTN1-transfected cells: HEK293 cells, compared with Mock or untreated cells, 37° C.
T1 construct: cDNA containing the entire ORF which was cleaved out with SmaI and EcoRI was integrated; expressed in transfected cells; host or cells: Xenopus oocytes injected with 15 ng cRNA transcribed in vitro from pcDNA3/OCTN1
T1 sequence (Q9H015 1-551 I306T/L503F): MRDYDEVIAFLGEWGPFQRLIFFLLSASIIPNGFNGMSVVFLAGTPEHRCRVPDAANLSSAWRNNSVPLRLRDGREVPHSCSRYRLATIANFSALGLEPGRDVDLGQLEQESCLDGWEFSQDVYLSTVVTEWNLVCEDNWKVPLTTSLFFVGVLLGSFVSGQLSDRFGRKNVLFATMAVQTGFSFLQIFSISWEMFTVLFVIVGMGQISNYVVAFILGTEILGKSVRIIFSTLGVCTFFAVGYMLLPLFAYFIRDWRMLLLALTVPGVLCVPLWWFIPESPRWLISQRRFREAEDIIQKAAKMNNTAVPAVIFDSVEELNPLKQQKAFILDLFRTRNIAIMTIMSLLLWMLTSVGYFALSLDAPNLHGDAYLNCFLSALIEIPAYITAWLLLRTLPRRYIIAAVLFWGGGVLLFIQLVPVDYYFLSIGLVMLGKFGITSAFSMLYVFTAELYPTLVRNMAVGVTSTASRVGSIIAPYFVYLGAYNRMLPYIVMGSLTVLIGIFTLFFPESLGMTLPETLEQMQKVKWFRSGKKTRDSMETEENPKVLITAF
Description: The human fetal-kidney-derived cell strain, HEK 293 cells were transfected with the plasmid pcDNA3/OCTN1 and pcDNA3 vector containing no insert as a control by the calcium phosphate method. First, the plasmid DNA (10 μg), a Hepes buffer solution (137 mM NaCl, 5 mM KCl, 0.7 mM Na2HPO4, 6 mM Dextrose, and 21 mM Hepes pH 7.1) (1 ml), and 2 M CaCl2 (62.5 μl) were combined and allowed to stand at room temperature for 30 min or more to form calcium phosphate coprecipitates. After cells were plated on 10-cm plates at 1.5×10^6 cells per plate and cultured for 24 h, the calcium phosphate coprecipitates were added thereto, and the cells were further cultured for 24 h. Then, plates were washed with phosphate buffered saline (PBS), and the cells were further cultured for 24 h after the addition of fresh culture medium.
(§1) Transport experiment was performed using cells transfected with the plasmid DNA or untreated cells according to the following procedures. Cells were detached from plates using a rubber policeman, suspended in a transport buffer (containing 125 mM NaCl, 4.8 mM KCl, 5.6 mM (+)-glucose, 1.2 mM CaCl2, 1.2 mM KH2PO4, 1.2 mM MgSO4, and 25 mM Hepes pH 7.4), and pre-incubated for 20 min. An appropriate amount of each labeled substrate ([^14C]TEA (tetraethylammonium) (NEN), [^3H]carnitine (L-carnitine hydrochloride) (Amersham), [^3H]PCG (benzylpenicillin) (Amersham), [^3H]quinidine (ARC), or [^3H]pyrilamine (mepyramine) (Amersham)) was then added to the cell suspension, and the resulting mixture was incubated at 37° C. for a predetermined period of time. Incubated cells were overlaid on a silicon layer prepared by layering a mixture of silicon oil and liquid paraffin (specific gravity 1.022) on a 3 M KCl layer, and separated by centrifugation. Radioactivity of cells was measured to determine the into-the-cell transport activity. In this case, 1×10^6 cells were used as one point of cells. HEK 293 cells were cultured in Dulbecco's MEM containing 10% fetal calf serum (FCS) in an atmosphere of 5% carbon dioxide at 37° C.
First, the transporter capacity was measured in the cells transfected with pcDNA3/OCTN1 and untreated cells using TEA as a substrate (FIG. 5). […] Next, effects of the addition of unlabeled TEA on the labeled substrate uptake in this system (cold inhibition) was examined (FIG. 6). […] Next, to obtain the Km (Michaelis constant) value of human OCTNL to TEA, the uptake of ^14C-TEA with various concentrations was measured (FIG. 7). […] Next, the transport capacity of human OCTN1 for other substrate than TEA was examined (FIG. 8).

human OCTN1 [2] = biological target: T1, human OCTN1; assay: Transport experiment using Xenopus oocytes injected with human OCTN1 cRNA; settings: 25° C., 1 h, compared with water-injected oocytes
Description: cRNA was synthesized in vitro using T7 RNA polymerase with pcDNA3/OCTN1 as a template. This cRNA was diluted to the concentration of 0.3 ng/nl, and its 50-nl (15 ng) aliquot was injected into a single oocyte. As a control, 50 nl of distilled water was injected. These oocytes were cultured for 3 days, and then used for the transport experiment. After being preincubated in an uptake buffer (0.05% Tween 80, 100 mM NaCl, 2 mM KCl, 1 mM CaCl2, 1 mM MgCl2, and 10 mM Hepes pH 7.4) at 25° C. for 20 min, the oocytes were transferred to the uptake buffer containing 0.5 ml of labeled substrate to initiate the uptake. After the incubation at 25° C. for 1 h, the oocytes were washed in the ice-cold uptake buffer three times to terminate the reaction. The oocytes were solubilized in 5% SDS and mixed with Cleasol I (a cocktail for liquid scintillation counter) (3 ml) to determine the radioactivity. The radioactivity of the uptake buffer which contained the labeled compound at the time of incubation (external solution) (10 μl) was also similarly measured. The ratio of the radioactivity (dpm value) in the oocytes to that (dpm value) in the external solution was used as the uptake activity.

human OCTN2 = biological target: T2, human OCTN2 (Homo sapiens, UniProt O76082); assay: Transport experiment in HEK cells transfected with human OCTN2 (pcDNA3/OCTN2); settings: for transport by human OCTN2: HEK cells transfected with pcDNA3/OCTN2, compared with Mock and pcDNA3/OCTN1
T2 construct: clones from both fragments were ligated at the PstI site in the overlapping region; expressed in transfected cells
T2 sequence (O76082 1-557): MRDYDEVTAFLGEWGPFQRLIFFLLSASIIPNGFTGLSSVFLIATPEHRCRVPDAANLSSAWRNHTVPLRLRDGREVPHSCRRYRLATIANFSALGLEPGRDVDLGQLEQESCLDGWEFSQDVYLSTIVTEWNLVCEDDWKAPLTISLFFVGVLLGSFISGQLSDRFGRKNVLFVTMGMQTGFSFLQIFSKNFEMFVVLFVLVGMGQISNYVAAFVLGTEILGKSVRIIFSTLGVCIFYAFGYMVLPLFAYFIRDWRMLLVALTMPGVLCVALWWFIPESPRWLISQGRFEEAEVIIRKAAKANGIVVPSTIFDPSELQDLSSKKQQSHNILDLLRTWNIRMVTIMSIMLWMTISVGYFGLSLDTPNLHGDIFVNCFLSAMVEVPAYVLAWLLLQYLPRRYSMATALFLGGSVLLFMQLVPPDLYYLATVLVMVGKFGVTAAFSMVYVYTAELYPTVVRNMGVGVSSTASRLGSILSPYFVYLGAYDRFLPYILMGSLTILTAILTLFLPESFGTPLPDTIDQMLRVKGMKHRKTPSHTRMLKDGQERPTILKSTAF
Description: as §1
HEK cells were transfected with pcDNA3/OCTN2, the pcDNA3 vector containing no insert (Mock), or pcDNA3/OCTN1 by the method described in Example 6 to perform transport experiments.
Next, Na^+ dependence of human OCTN2-mediated carnitine transport was examined using a transport buffer in which Na^+ was replaced with K+(FIG. 12).

Row | SMILES | uptake of labeled substrate into human OCTN1-transfected cells (human OCTN1 [1]) | uptake activity / transport capacity of human OCTN1 cRNA-injected oocytes (human OCTN1 [2]) | further results
1 | Cc1c2oc3c(C)ccc(C(=O)N[C@@H]4C(=O)N[C@H](C(C)C)C(=O)N5CCC[C@H]5C(=O)N(C)CC(=O)N(C)[C@@H](C(C)C)C(=O)O[C@@H]4C)c3nc-2c(C(=O)N[C@@H]2C(=O)N[C@H](C(C)C)C(=O)N3CCC[C@H]3C(=O)N(C)CC(=O)N(C)[C@@H](C(C)C)C(=O)O[C@@H]2C)c(N)c1=O [actinomycin D] (I: T[dV]P[Sar][NMeV] / II: T[dV]P[Sar][NMeV]; ester I:1-I:C, II:1-II:C; linker I:N-II:N via Actinocin(9to1)) |  | has the activity to transport | 
2 | COc1cccc2c1C(=O)c1c(O)c3c(c(O)c1C2=O)C[C@@](O)(C(C)=O)C[C@@H]3O[C@H]1C[C@H](N)[C@H](O)[C@H](C)O1 [daunomycin] |  | has the activity to transport | 
3 | C[N+](C)(C)C[C@H](O)CC(=O)[O-].Cl [carnitine, L-carnitine hydrochloride] | significant increase in the uptake | expresses the transport capacity | transport by human OCTN2 (human OCTN2): high capacity to efficiently transport; carnitine transport activity of human OCTN2 in the absence of Na+ (human OCTN2; absence of Na+): no such activity; carnitine transport activity of human OCTN2 in the presence of Na+ (human OCTN2; presence of Na+): time-dependent carnitine transport activity; Na+ dependence of human OCTN2-mediated carnitine transport (human OCTN2; transport buffer in which Na+ was replaced with K+): completely depended on the presence of Na^+
4 | CC[N+](CC)(CC)CC [TEA, tetraethylammonium] | reaction time-dependent TEA uptake into the human OCTN1-transfectd cells was clearly observed | expresses the transport capacity | transport by human OCTN2 (human OCTN2): hardly transported; transport by human OCTN1 (comparison with OCTN2) (human OCTN1 [1]; HEK cells transfected with pcDNA3/OCTN1, Example 8): efficiently transported by human OCTN1; maximal velocity, Vmax (human OCTN1 [1]; Lineweaver-Burk plot of net uptake (OCTN1-transfected minus Mock HEK293 cells), 14C-TEA): 6.68±0.34 nmol/3 min/mg; Km (human OCTN1 [1]; Lineweaver-Burk plot of net uptake (OCTN1-transfected minus Mock HEK293 cells), 14C-TEA, read-out: Km (Michaelis constant) value of human OCTN1 to TEA): 440 ± 40 µM; effect of unlabeled (cold) TEA on labeled substrate uptake (cold inhibition) (human OCTN1 [1]; human OCTN1-transfected HEK293 cells): decrease in the apparent uptake of the labeled substrate was clearly seen depending on the concentration of cold TEA added
5 | CC[C@]1(O)C[C@@H]2CN(CCc3c([nH]c4ccccc34)[C@@](C(=O)OC)(c3cc4c(cc3OC)N(C)[C@H]3[C@@](O)(C(=O)OC)[C@H](OC(C)=O)[C@]5(CC)C=CCN6CC[C@]43[C@@H]65)C2)C1 [vinblastine] |  | has the activity to transport | 
6 | COc1cc([C@@H]2c3cc4c(cc3[C@@H](O[C@@H]3O[C@@H]5CO[C@@H](C)O[C@H]5[C@H](O)[C@H]3O)[C@H]3COC(=O)[C@H]23)OCO4)cc(OC)c1O [etoposide] |  | has the activity to transport | 

Now from value to compound, other results behind:

Row | uptake of labeled substrate into human OCTN1-transfected cells (human OCTN1 [1]) | SMILES | uptake activity / transport capacity of human OCTN1 cRNA-injected oocytes (human OCTN1 [2]) | further results
7 | significant increase in the uptake | C=C[C@H]1C[N@@]2CC[C@H]1C[C@@H]2[C@@H](O)c1ccnc2ccc(OC)cc12 [quinidine] | expresses the transport capacity | 
8 | no significant increase in the uptake | CC1(C)S[C@@H]2[C@H](NC(=O)Cc3ccccc3)C(=O)N2[C@H]1C(=O)O [PCG, benzylpenicillin] |  | 
9 | significant increase in the uptake | COc1ccc(CN(CCN(C)C)c2ccccn2)cc1 [pyrilamine] | expresses the transport capacity | 
